In patent US4826873A, “2,3-dihydroxy-3-phenyl-N-(2-phenyl-ethyl)-propionic acid amides derivatives thereof” (priority 1986, dated 1989):

Key:
[1] = tested on: CCl4 hepatotoxicity in mice; experiment: Protective action against CCl4 (0.1%) hepatotoxicity in mice (Table 3); format: in vivo, mice (male Kunming strain); conditions: for SGPT (± SE): two doses, 9 per group, control 3016 ± 23; for SGPT (± SE) / Liver lipids: CCl4 0.1% 10 ml/kg i.p.; for Liver lipids: control 21.0 ± 4.2; for decreasing SGPT level and liver injuries (in words): CCl4 0.1% ip
Description: (§1) Male Kunming strain mice weighing 18-22 grams were used throughout the experiments. The compound to be tested was suspended in 5% Tween 80 and given orally by gavage. The vehicle of 5% Tween 80 solution was administered to control mice via the same route. In the vitro experiments,the compound was dissolved in dimethylformamide and added directly into the incubation mixture.
(§2) The parameters adopted for hepatotoxicicity included serum tranaminase (SGPT), liver triglycerides, and pathological examination of liver tissues. The liver lesions were scored mainly by the extent of inflammation and necrosis and graded from 0 to 4.
In another experiment, mice were first administered two doses of the compound and injected ip 10 ml/kg of 0.1% CCl4 in vegetable oil 24 h after administration of the second dose.

[2] = tested on: microsomal proteins; experiment: 14CCl4 covalent binding to microsomal proteins; format: biochemical, mice; conditions: 1 mM, NADPH-reduced liver microsomes
Description: as §1
(§3) CCl4 hepatotoxicity has been considered to be due to formation of free radicals which initiate lipid peroxidation or covalent binding to macromolecules of microsomes. Thus, the structures and function of cell membranes were destroyed. The effect of the compound on CCl4 induced lipid peroxidation (malonic dialdehyde, MDA, in vitro, and diene conjugates in vivo) and ^14 CCl4 covalent binding to lipids and proteins of microsomes were investigated.
(§4) The condition of incubation was similar to that of MDA production. The compound was pre-incubated with NADPH-reduced liver microsomes for 10 minutes. The final concentration of the compound was 1 mM. ^14 CCl4 0.5 uci was added to the incubation mixture. Incubation was continued for another 60 minutes. The radio-activity of ^14 CCl4 in microsomal lipids and proteins was separated by the method of extraction of diene conjugates and counted by liquid scintillation.

[3] = tested on: microsomal lipids; experiment: 14CCl4 covalent binding to microsomal lipids; format: biochemical, mice; conditions: 1 mM, NADPH-reduced liver microsomes
Description: as §1, §3, §4

[4] = tested on: CCl4 intoxicated mice; experiment: Effect on SGPT level of CCl4-intoxicated mice (pretreatment, Table 1); format: in vivo, mice (male Kunming strain)
Description: as §1, §2
Mice were divided into several groups.
The control group received the vehicle. The other groups were given two doses of the compound (250 mg/kg) at an interval of 8 h, respectively. All the mice were injected ip 10 ml/kg of 0.1% CCl4 in vegetable oil 24 h after the last administration of the compound. The mice were fasted for 16 h and sacrificed by decapitation. SGPT and liver lipids were determined. A piece of liver was processed into sectins for pathological examination.

[5] = tested on: barbital sleeping time in mice; experiment: Barbital sleeping time in mice (Table 8); format: in vivo, mice (male Kunming strain)
Description: as §1
In another experiment, mice were given a dose of 250 mg/kg of the compound. […] The sleeping time was estimated by recording the interval of disappearance and recovery of righting reflex. […] It means that the prolongation of pentobarbital sleeping time by the compound was due to the inhibition of liver drug metabolism enzyme.

[6] = tested on: CCl4-initiated lipid peroxidation of liver microsomes (MDA); experiment: CCl4-initiated lipid peroxidation of liver microsomes, MDA formation in vitro (Table 6); format: biochemical, mice (phenobarbital-induced); conditions: 1 mM compound
Description: as §1, §3
MDA formation: The compound was pre-incubated with NADPH-reduced liver microsomes from phenobarbital-induced mice at 37° C. for 15 minutes, 10 ul of CCl4 (diluted with 20 volume of ethanol) was added into the incubation mixture, reincubated for 20 minutes. The production of MDA was determined by the method of thiobarbituric acid.

[7] = tested on: benzo(a)pyrene hydroxylase; experiment: Hepatic AHH / benzo(a)pyrene hydroxylase in mice (Table 7); format: in vivo, mice (male Kunming strain)
Description: as §1
(§5) The liver microsomal cytochrome P-450 plays a key role in the detoxification of xenobiotics. […] Mice were administered 250 mg/kg of the compound once daily for 3 days. The control mice received the vehicle. The mice were killed after fasting overnight. Liver microsomes were prepared and microsomal monooxygenases were determined.

[8] = tested on: pentobarbital sleeping time in mice; experiment: Pentobarbital sleeping time in mice (Table 8); format: in vivo, mice (male Kunming strain); conditions: for Sleeping time (X ± SE): 250 mg/kg, 10 per group, control 71 ± 7, P <0.01, in min (unit assumed)
Description: as §1
(§6) In another experiment, mice were given a dose of 250 mg/kg of the compound. Sodium pentobarbital (50 mg/kg) was injected ip 1 and 24 h after administration of the compound. The sleeping time was estimated by recording the interval of disappearance and recovery of righting reflex. […] It means that the prolongation of pentobarbital sleeping time by the compound was due to the inhibition of liver drug metabolism enzyme.

[9] = tested on: NADPH-cytochrome c reductase; experiment: Hepatic NADPH-cytochrome c reductase in mice (Table 7); format: in vivo, mice (male Kunming strain)
Description: as §1, §5

[10] = tested on: CCl4 hepatotoxicity in mice; experiment: Therapeutic effect on CCl4 (0.15%) hepatotoxicity in mice (Table 2); format: in vivo, mice (male Kunming strain)
Description: as §1, §2
In the experiments of anti-CCl4 hepatotoxicity, mice were first injected 10 ml/kg of 0.15% CCl4 in vegetable oil every other day for three doses. The treatment of mice with the compound (250 mg/kg daily) started from the second to fifth day after the first injection of CCl4. The determination of SGPT and pathological examination of liver tissues were performed on day 7 of the experiment.

[11] = tested on: serum and liver transaminase (GPT); experiment: Effect on serum and liver transaminase (GPT) levels of normal mice (Table 5); format: in vivo, mice (male Kunming strain)
Description: as §1
Groups of mice were administered the vehicle or 250 mg/kg of the compound once daily for 7 consecutive days. The serum and liver GPT were determined 24 h after the last dose administration.

[12] = tested on: hepatic microsomal cytochrome P-450; experiment: Induction of hepatic microsomal cytochrome P-450 in mice (Table 7); format: in vivo, mice (male Kunming strain); conditions: for hepatic cytochrome P-450 (in words): 250 mg/kg once daily, 3 days
Description: as §1, §5, §6

[13] = tested on: diene conjugates in liver microsomes of CCl4-intoxicated mice; experiment: CCl4-initiated lipid peroxidation, diene conjugates in vivo (Table 6); parameters: species or system mice (male Kunming strain); conditions: 250 mg/kg, 1 ml/kg CCl4
Description: as §1, §3
Diene conjugates: Mice were given two doses of 250 mg/kg of the compound on the first day and followed by the same dose on the second day and then received an injection of 1 ml/kg of CCl4. The mice were killed 1 h after the CCl4 injection. The diene conjugates in liver microsomes were extracted with chloroform-methanol (2:1) and washed with methanol 0.9% NaCl solution. The absorption of diene conjugates in the chloroform layer at 243 nm was measured with spectrophotometer.

[14] = tested on: acetaminophen hepatotoxicity in mice; experiment: Anti-acetaminophen hepatotoxicity experiment in mice; format: in vivo, mice (male Kunming strain); conditions: 250 mg/kg two doses first day and same dose second day; acetaminophen 150 mg/kg ip
Description: as §1, §2
In the anti-acetaminophen hepatotoxicity experiment, mice received two doses (250 mg/kg) of the compound on the first day and the same dose on the second day. A dose of 150 mg/kg of acetaminophen was injected ip 6 h after the last dose of the compound, SGPT was determined and liver tissues were examined 20 h after acetaminophen injection.

[15] = tested on: liver; experiment: Liver weight and microsomal protein content (Table 7); format: in vivo, mice (male Kunming strain)
Description: as §1, §5

[16] = tested on: thioacetamide hepatotoxicity in mice; experiment: Protective action against thioacetamide hepatotoxicity in mice (Table 4); format: in vivo, mice (male Kunming strain)
Description: as §1, §2
In the experiment of thioacetamide hepatotoxicity, mice were treated according to the procedure of CCl4 intoxication as described above except that thioacetamide 50 mg/kg was injected instead of CCl4.

[17] = tested on: cytochrome b5; experiment: Hepatic cytochrome b5 in mice (Table 7); format: in vivo, mice (male Kunming strain)
Description: as §1, §5

[18] = tested on: aminopyrine demethylase; experiment: Hepatic aminopyrine demethylase in mice (Table 7); format: in vivo, mice (male Kunming strain)
Description: as §1, §5

[19] = listed as compound of the general formula (I), R1 =H, R2 =CH3

Structure (SMILES): CN(CCc1ccccc1)C(=O)C(O)C(O)c1ccccc1 (stereo not shown) [Compound, 2,3-dihydroxy-N-methyl-3-phenyl-N-(2-phenylethyl)-propionic acid amide]
- SGPT (± SE) ([1]; 125 mg/kg): 2727 ± 162 unit %
- Liver lipids ([1]; 125 mg/kg): 21.0 ± 3.8 mg/g
- decreasing SGPT level and liver injuries (in words) ([1]; 125 mg/kg): without effect
- SGPT (± SE) ([1]; 250 mg/kg, footnote <0.01): 2270 ± 221 unit %
- Liver lipids ([1]; 250 mg/kg): 22.5 ± 5.5 mg/g
- decreasing SGPT level and liver injuries (in words) ([1]; 250 mg/kg): effective for decreasing SGPT level and liver injuries
- Liver lesions, Inflammation (Grade) ([1]; 250 mg/kg, graded from 0 to 4, control 1.70): 0.16 Grade
- Liver lesions, Necrosis (Grade) ([1]; 250 mg/kg, graded from 0 to 4, control 2.33): 0.72 Grade
- covalent binding of 14CCl4 to microsomal proteins (in words) [2]: not inhibited
- covalent binding of 14CCl4 to microsomal lipids (in words) [3]: not inhibited
- SGPT (X ± SE) ([4]; 250 mg/kg × 2, oral, 0.1% CCl4 10 ml/kg ip 24 h later, 9 per group, control 1678 ± 261, P <0.05): 727 ± 266 unit %
- effect on elevated SGPT of CCl4-intoxicated mice (in words) ([4]; 250 mg/kg × 2, CCl4 ip): significantly decreased the elevated SGPT
- hepatoprotective action against CCl4 (conclusion, in words) ([4]; mouse, in vivo): has hepatoprotective action against CCl4
- Sleeping time (X ± SE) ([5]; 1 h before barbital 200 mg/kg, 10 per group, control 197 ± 27, P >0.05): 172 ± 13
- barbital sleeping time (in words) ([5]; prior administration of compound): did not affect sleeping time
- Inhibition of MDA [6]: 16.3%
- MDA production / lipid peroxidation of microsomes induced by CCl4 (in words) [6]: inhibited MDA production initiated by CCl4 in vitro
- MDA production / lipid peroxidation of microsomes induced by CCl4 (in words) [6, 19]: could inhibit lipid peroxidation
- MDA ([6]; number of determinations 3, control 35.5): 29.7 ± 4 OD × 100/1.5 mg
- AHH ([7]; 250 mg/kg day × 3, control 2.6 ± 0.4, P <0.01): 6.2 ± 0.42 nmol/min/mg protein
- benzo(a)pyrene hydroxylase activity (in words) ([7]; 250 mg/kg once daily, 3 days): increased significantly
- Sleeping time (X ± SE) ([8]; 1 h before pentobarbital 50 mg/kg ip): 132 ± 13
- Sleeping time (X ± SE) ([8]; 24 h before pentobarbital 50 mg/kg ip): 45 ± 6
- pentobarbital sleeping time (in words) ([8]; compound 1 h prior to pentobarbital): prolonged markedly
- pentobarbital sleeping time (in words) ([8]; compound 24 h before pentobarbital): shortened significantly
- NADPH-cytochrome C reductase ([9]; 250 mg/kg day × 3, control 103 ± 2.5, P <0.01): 148 ± 2.5 nmol cytochrome c reduced/min/
- NADPH-cytochrome c reductase activity (in words) ([9]; 250 mg/kg once daily, 3 days): increased significantly
- effect on liver lesions (in words) ([10]; 250 mg/kg daily, day 7 examination): no effect on liver lesions
- SGPT lowering action (in words) ([10]; 250 mg/kg daily, second to fifth day after first CCl4): significant SGPT lowering action
- SGPT (x ± SE) ([10]; 250 mg/kg/day × 4, CCl4 0.15% in vegetable oil 10 ml/kg × 3, 8 per group, control 2695 ± 110, P <0.01): 1801 ± 312 unit %
- SGPT level of normal mice (in words) ([11]; 250 mg/kg once daily, 7 days): slightly higher than that of the control but the difference was not significant
- SGPT (± SE) ([11]; normal mice, 250 mg/kg/day × 7, 8 per group, control 217 ± 17.5): 272 ± 27.8 unit %
- LGPT (liver GPT, ± SE) ([11]; normal mice, 250 mg/kg/day × 7, 8 per group, control 260 ± 11.6): 234 ± 13.6 unit %
- Cytochrome P-450 ([12]; 250 mg/kg day × 3, control 0.87 ± 0.07, P <0.01): 1.23 ± 0.06 nmol/mg protein
- hepatic cytochrome P-450 (in words) [12]: increased significantly
- hepatic cytochrome P-450 (in words) [12, 19]: inducing action on hepatic cytochrome p-450
- biphasic actions on hepatic microsomal cytochrome p-450 (in words) ([12]; concluded from barbiturate sleeping times): inhibition followed by induction
- diene conjugates production in livers (in words) ([13]; two doses first day and same dose second day): would not inhibit diene conjugates production
- Diene conjugates ([13]; in vivo, number of determinations 8, control 55.8 ± 2.3): 54.8 ± 3.3 OD × 100/g liver
- anti-acetaminophen hepatotoxicity (in words) [14]: inactive
- Liver weight ([15]; 250 mg/kg day × 3, 6 per group, control 4.0 ± 0.2, P >0.05): 4.3 ± 0.2 g %
- Microsomal protein ([15]; 250 mg/kg day × 3, control 6.3 ± 0.3, P >0.05): 7.0 ± 0.5 mg/g liver
- increase of liver size (in words) ([15]; 250 mg/kg once daily, 3 days): not seen
- increase of microsomal protein content (in words) ([15]; 250 mg/kg once daily, 3 days): not seen
- SGPT (± SE) ([16]; 250 mg/kg × 2, thioacetamide 50 mg/kg ip, 9 per group, control 1696 ± 231, footnote <0.05): 1045 ± 166 unit %
- Liver lipids (± SE) ([16]; 250 mg/kg × 2, thioacetamide 50 mg/kg ip, control 61 ± 11.7): 59 ± 11.3 mg/g
- protection against thioacetamide hepatotoxicity (conclusion, in words) ([16]; mouse, in vivo): protected against thioacetamide hepatotoxicity
- effect on SGPT levels, thioacetamide hepatotoxicity (in words) ([16]; thioacetamide 50 mg/kg): markedly lowered the SGPT levels
- Cytochrome b5 ([17]; 250 mg/kg day × 3, control 0.15 ± 0.01, P >0.05): 0.16 ± 0.016 nmol/mg protein
- cytochrome b5 (in words) ([17]; 250 mg/kg once daily, 3 days): increased significantly
- Aminopyrine demethylase ([18]; 250 mg/kg day × 3, control 81 ± 63, P <0.01): 107 ± 5.8 nmol HCHO/min/mg protein
- aminopyrine demethylase activity (in words) ([18]; 250 mg/kg once daily, 3 days): increased significantly
